Measurements as given in ChEMBL document CHEMBL2440023, “Biological activity of 3-chloro-azetidin-2-one derivatives having interesting antiproliferative activity on human breast cancer cell lines” (Bioorg Med Chem Lett, 2013).
Calls of active or inactive are those of the source. The calls are words filed in the database; no cut-off is given here.

How the values were obtained:
NIH3T3 = assay: Cytotoxicity against mouse 3T3 cells assessed as cell viability at 5 to 20 uM after 72 hrs by MTT assay; type: cell-based; settings: nih3t3, 72 h
SK-BR-3 [1] = assay: Cytotoxicity against ER-negative human SKBR3 cells assessed as growth inhibition after 72 hrs by MTT assay; type: functional, cell-based; settings: for IC50: SK-BR-3, 72 h
MCF7 [2] = assay: Cytotoxicity against ER-positive human MCF7 cells assessed as growth inhibition after 72 hrs by MTT assay; type: functional, cell-based; settings: for IC50: MCF7, 72 h
[3] = Stability of the compound in simulated gastric/intestinal fluid assessed as compound remaining at 10 mM after 6 hrs by UV/Vis spectroscopic analysis in presence of porcine pepsin and pancreatin relative to control; type: physicochemical; settings: pig; read-out: Stability
SK-BR-3 [4] = assay: Cytotoxicity against ER-negative human SKBR3 cells assessed as growth inhibition at 20 uM after 72 hrs by MTT assay; type: functional, cell-based
MCF7 [5] = assay: Cytotoxicity against ER-positive human MCF7 cells assessed as growth inhibition at 10 to 20 uM after 72 hrs by MTT assay; type: functional, cell-based
SK-BR-3 [6] = assay: Cytotoxicity against ER-negative human SKBR3 cells assessed as growth inhibition at 10 to 20 uM after 72 hrs by MTT assay; type: functional, cell-based
MCF7 [7] = assay: Cytotoxicity against ER-positive human MCF7 cells assessed as growth inhibition at 20 uM after 72 hrs by MTT assay; type: functional, cell-based
MCF7 [8] = assay: Cytotoxicity against ER-positive human MCF7 cells assessed as growth inhibition at 1 uM after 72 hrs by MTT assay; type: functional, cell-based

Row | Compound | remaining at 6 h, 10000 µM [3] [%] | Activity (NIH3T3) | growth inhibition (GI) (SK-BR-3 [1]) | IC50 (SK-BR-3 [1]) [µM] | growth inhibition (GI) (MCF7 [2]) | IC50 (MCF7 [2]) [µM] | growth inhibition (GI) (SK-BR-3 [4]) | growth inhibition (GI) (MCF7 [5]) | growth inhibition (GI) (SK-BR-3 [6]) | growth inhibition (GI) (MCF7 [7]) | growth inhibition (GI) (MCF7 [8])
1 | O=C1C(Cl)C(c2ccc(Br)cc2)N1c1ccc(Br)cc1 (stereo unspecified) | 87 | Non-toxic | Dose-dependent effect | 11.1 | Dose-dependent effect | 16.7 | – | – | – | – | –
2 | O=C1C(Cl)C(c2ccccc2)N1c1ccccc1 (stereo unspecified) | 78 | Non-toxic | – | – | – | – | – | – | Active | – | inactive
3 | O=C1C(Cl)C(c2ccc(Cl)cc2)N1c1ccc(I)cc1 (stereo unspecified) | 70 | Non-toxic | Dose-dependent effect | 9.51 | Dose-dependent effect | 11.8 | – | – | – | – | –
4 | Oc1ccc(/C=C\c2cc(O)cc(O)c2)cc1 [CIS-RESVERATROL] | 31 | – | – | 41.2 | – | 28.4 | – | – | – | – | –

Now from value to molecule, other results behind:

Row | remaining at 6 h, 10000 µM [3] [%] | Compound | Activity (NIH3T3) | growth inhibition (GI) (SK-BR-3 [1]) | IC50 (SK-BR-3 [1]) [µM] | growth inhibition (GI) (MCF7 [2]) | IC50 (MCF7 [2]) [µM] | growth inhibition (GI) (SK-BR-3 [4]) | growth inhibition (GI) (MCF7 [5]) | growth inhibition (GI) (SK-BR-3 [6]) | growth inhibition (GI) (MCF7 [7]) | growth inhibition (GI) (MCF7 [8])
5 | 79 | Cc1ccc(C2C(Cl)C(=O)N2c2ccc(C)cc2)cc1 (stereo unspecified) | Non-toxic | – | – | – | – | Active | inactive | – | – | –
6 | 83 | O=C1C(Cl)C(c2ccc(Cl)cc2)N1c1ccccc1 (stereo unspecified) | Non-toxic | – | – | – | – | – | – | Active | Active | –
7 | 80 | O=C1C(Cl)C(c2ccccc2)N1c1ccc(Cl)cc1 (stereo unspecified) | Non-toxic | – | – | Dose-dependent effect | – | – | – | Active | – | –
